Where “and” joins values, the source holds several entries; their conditions need not be identical. Equal values may be shown once.
What was measured:
[1] = test system: heart allograft rejection; experiment: Rat heart transplantation; format: in vivo; conditions: rat heart transplant, Lewis/DA, 30 mg/kg bid
Experimental: The strain combination used: Male Lewis (RT^1 haplotype) and DA (RT^1 haplotype). The animals are anaesthetised using inhalational isofluorane. […] The aorta is ligated and divided distal to the first branch and the brachiocephalic trunk is divided at the first bifurcation. The left pulmonary artery is ligated and divided and the right side divided but left open. All other vessels are dissected free, ligated and divided and the donor heart is removed into iced saline.
The recipient is prepared by dissection and cross-clamping of the infra-renal abdominal aorta and vena cava. The graft is implanted with end-to-side anastomoses, using 10/0 monofilament suture, between the donor brachiocephalic trunk and the recipient aorta and the donor right pulmonary artery to the recipient vena cava. The clamps are removed, the graft tethered retroabdominally, the abdominal contents washed with warm saline and the animal is closed and allowed to recover under a heating lamp. Graft survival is monitored by daily palpation of the beating donor heart through the abdominal wall. Rejection is considered to be complete when heart beat stops. Increases of graft survival are obtained in animals treated with a compound of formula I, II, III or IV or a pharmaceutically acceptable salt or solvate thereof administered orally at a daily dose of 10 to 30 mg/kg bid. […]

[2] = test system: Balb/c spleen cells stimulated by irradiated or mitomycin C treated CBA spleen cells; experiment: Murine mixed lymphocyte reaction (MLR); format: cell-based; conditions: Mus musculus, 120 h, 5 days co-incubation, labeled precursor incorporation into DNA, read-out: IC50 (concentration resulting in 50% inhibition of cell proliferation)
Experimental: Spleen cells (0.5×10^6) from Balb/c mice (female, 8-10 weeks) are co-incubated for 5 days with 0.5×10^6 irradiated (2000 rads) or mitomycin C treated spleen cells from CBA mice (female, 8-10 weeks). The irradiated allogeneic cells induce a proliferative response in the Balb/c spleen cells which can be measured by labeled precursor incorporation into the DNA. […] The antiproliferative effect of the compounds on the Balb/c cells is measured at various dilutions and the concentration resulting in 50% inhibition of cell proliferation (IC50) is calculated.

## Cn1cc(C2=C(c3cn(C4CCN(Cc5ccccn5)CC4)c4ccccc34)C(=O)NC2=O)c2ccccc21 [Compound A, 3-(1-methyl-1H-indol-3-yl)-4-[1-{(1-pyridin-2-ylmethyl)-piperidin-4-yl}-1H-indol-3-yl]-pyrrole-2,5-dione]
[1]
  prolongation of graft survival: 14 days and 25 days and 26 days

## Cn1cc(C2=C(c3cn(C4CCNCC4)c4ccccc34)C(=O)NC2=O)c2ccccc21 [Compound B, 3-(1-methyl-1H-indol-3-yl)-4-[1-(piperidin-4-yl)-1H-indol-3-yl]-pyrrole-2,5-dione]
[2]
  IC50: 195 nM

Source: patent US20070232658A1, “Protein Kinase C Inhibitors for the Treatment of Autoimmune Diseases and of Transplant Rejiction” (priority 2004, published 2007)
